# Laboratory results from patent publication US20010018182A1, “Methods of monitoring disease states and therapies using gene expression profiles” (Rosetta Inpharmatics, Inc., priority 1998, published 2001).
# Assays:
# [1] = test system: yeast gene YOL031C expression; test: gene transcript array mRNA expression response to methotrexate titrations, Hill function fit; format: cell-based, Saccharomyces cerevisiae; details: least squares fit of YOL031C expression response (log10 expression ratio); exposure levels 3, 6, 25, 50, 100, 200 μM
# Source text: FIG. 2 illustrates an example of perturbation response profiles measured at discrete protein activity levels of dihydrofolate reductase. Specifically, the figure illustrates mRNA expression levels of 30 genes of the yeast Saccharomyces cerevisiae that, of the approximately 6000 genes in the genome of this yeast, had the largest expression changes in response to six different titrations of the drug methotrexate, which is known to act primarily by disrupting the activity of dihydrofolate reductase. These gene expression level measurements were made with gene transcript arrays, as described in Section 5.4. The perturbation response profiles in FIG. 2 can be interpolated according to the methods disclosed in Section 5.3, below, to provide perturbation response profiles for any activity level of dihydrofolate reductase, and are thereby correlated to efficacy of the drug methotrexate.
# In model fitting, the perturbation responses are interpolated by approximating each by a single parameterized function. An exemplary model-fitting function appropriate for approximating transcriptional state data is the Hill function, which has adjustable parameters a, u0, and n. [formula]
# the adjustable parameters are selected independently for each cellular constituent of the perturbation response. Preferably, the adjustable parameters are selected so that for each cellular constituent the sum of the squares of the distances H(pl) from Rk(Pl) is minimized. This preferable parameter adjustment method is known in the art as a least squares fit of H( ) to Rk( ). Other possible model functions are based on polynomial fitting, for example by various known classes of polynomials.
# Model fitting with a Hill function is illustrated with respect to FIGS. 2 and 3. As discussed, FIG. 2 illustrates an example of perturbation by methotrexate and identified by measurement. […]
# [2] = test system: yeast Saccharomyces cerevisiae; test: growth defect of yeast on methotrexate drug exposure; format: cell-based; details: 100 μM titration of methotrexate
smiles,measurement,setting,value
CN(Cc1cnc2nc(N)nc(N)c2n1)c1ccc(C(=O)N[C@@H](CCC(=O)O)C(=O)O)cc1 [methotrexate],Hill function parameter a,[1],−0.61
same,Hill function parameter log10(u0),[1],1.26
same,Hill function parameter n,[1],2
same,growth defect,[2],50%
